Source: US20210024455A1 (priority 2018, published 2021)

Key:
TRF2 = target: T1, TRF2 (Homo sapiens, UniProt Q15554); assay: biochemical; assay type: binding; details: read-out: inhibition rate (%) in DSE FRET assay
T1 sequence (Q15554 1-542): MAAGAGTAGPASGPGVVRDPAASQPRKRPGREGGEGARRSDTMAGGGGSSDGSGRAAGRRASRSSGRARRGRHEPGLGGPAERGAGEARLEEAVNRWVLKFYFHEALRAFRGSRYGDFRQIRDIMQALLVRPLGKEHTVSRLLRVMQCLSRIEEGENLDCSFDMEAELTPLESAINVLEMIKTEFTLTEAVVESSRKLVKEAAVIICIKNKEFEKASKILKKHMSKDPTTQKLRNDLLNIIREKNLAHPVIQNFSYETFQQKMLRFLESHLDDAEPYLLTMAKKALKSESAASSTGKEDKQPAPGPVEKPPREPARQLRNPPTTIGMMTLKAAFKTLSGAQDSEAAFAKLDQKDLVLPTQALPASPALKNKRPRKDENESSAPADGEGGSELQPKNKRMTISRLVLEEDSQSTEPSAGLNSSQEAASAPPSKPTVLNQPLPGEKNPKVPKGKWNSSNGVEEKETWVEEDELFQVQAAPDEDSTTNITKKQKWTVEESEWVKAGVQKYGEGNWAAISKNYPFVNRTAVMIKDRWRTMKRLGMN

HeLa1.2.11 cells = assay: cells; assay type: cell-based; details: read-out: IC50, suppressing proliferation of HeLa1.2.11 cells

| Compound | inhibition at 50 µM (TRF2) [%] | IC50 (HeLa1.2.11 cells) [µM] |
| --- | --- | --- |
| CC(=O)c1ccc(N(c2ccccc2)c2ccccc2Oc2c([N+](=O)[O-])cc([N+](=O)[O-])cc2[N+](=O)[O-])cc1 [compound 168] | 25.5 | 43 |
| Cc1ccc(N(c2ccccc2)c2ccccc2Oc2c([N+](=O)[O-])cc([N+](=O)[O-])cc2[N+](=O)[O-])cc1 [compound 145] | 38.7 | 26 |
| O=[N+]([O-])c1cc([N+](=O)[O-])c(Oc2ccccc2N(c2ccccc2)c2ccccc2)c([N+](=O)[O-])c1 [compound 144] | 38.3 | 31 |
| COc1ccc(N(c2ccccc2)c2ccccc2Oc2c([N+](=O)[O-])cc([N+](=O)[O-])cc2[N+](=O)[O-])cc1 [compound 204] | 20.4 | 20 |
| CC(=O)c1ccc(N(c2ccc(C(C)=O)cc2)c2ccccc2Oc2c([N+](=O)[O-])cc([N+](=O)[O-])cc2[N+](=O)[O-])cc1 [compound 171] | 24.7 | 48 |
| CC(=O)c1ccc(N(c2ccc(C)cc2)c2ccccc2Oc2c([N+](=O)[O-])cc([N+](=O)[O-])cc2[N+](=O)[O-])cc1 [compound 225] | 36.9 | 28 |
| CC(C)(C)c1ccc(Oc2c([N+](=O)[O-])cc([N+](=O)[O-])cc2[N+](=O)[O-])c(N(c2ccccc2)c2ccccc2)c1 [compound 192] | 33.6 | 24 |
| COc1ccc(N(c2ccccc2)c2cc(C(C)(C)C)ccc2Oc2c([N+](=O)[O-])cc([N+](=O)[O-])cc2[N+](=O)[O-])cc1 [compound #207] | 23.7 | 19 |
| CC(=O)c1ccc(N(c2ccc(C(C)(C)C)cc2)c2ccccc2Oc2c([N+](=O)[O-])cc([N+](=O)[O-])cc2[N+](=O)[O-])cc1 [compound 227] | 18.4 | 18 |
| CC(=O)c1ccc(N(c2ccccc2)c2cc(C(C)(C)C)ccc2Oc2c([N+](=O)[O-])cc([N+](=O)[O-])cc2[N+](=O)[O-])cc1 [compound 201] | 23 | 15 |
| Cc1cc([N+](=O)[O-])cc([N+](=O)[O-])c1Oc1ccccc1N(c1ccccc1)c1ccc(C(C)(C)C)cc1 [compound 228] | 11.8 | 20 |
